Assay results published in US7396837B2, “Antitumoral analogs of lamellarins” (Pharma Mar, S.A.U., priority 2002, dated 2008).

Key:
Assay type in all cases: cell-based
LoVo = assay: SRB colorimetric cell growth inhibition assay, LoVo; conditions: Homo sapiens, LoVo; for GI50: GI=growth inhibition, read-out: GI50 LOVO; for CC50: cell killing (cytotoxic effect), read-out: LC50 LOVO; for IC (TGI): total growth inhibition (cytostatic effect), read-out: TGI LOVO
Description: (§1) The finality of these assays is to interrupt the growth of an “in vitro” tumor cell culture by means a continued exhibition of the cells to the sample to be testing.
(§2) A colorimetric type of assay, using sulforhodamine B (SRB) reaction has been adapted for a quantitative measurement of cell growth and viability (following the technique described by P. A. Skehan, et al., J. Natl. Cancer Inst. 1990, 82, 1107-1112).
(§3) This form of assay employs 96 well cell culture microplates of 9 mm diameter (T. Mosmann et al., J. of Immunological Methods 1983, 65, 55-63; G. T. Faircloth et al., J. of Tissue and Culture Methods 1988, 11, 201-205).
(§4) Most of the cell lines are obtained from American Type Culture Collection (ATCC) derived from different human cancer types.
(§5) The values for mean +/− SD of data from triplicate wells are calculated. Some parameters for cellular responses can be calculated: GI=growth inhibition, TGI=total growth inhibition (cytostatic effect) and LC=cell killing (cytotoxic effect).

PANC-1 = assay: SRB colorimetric cell growth inhibition assay, PANC-1; conditions: Homo sapiens, PANC-1, PANC-1; for GI50: GI=growth inhibition, read-out: GI50 PANC-1; for CC50: cell killing (cytotoxic effect), read-out: LC50 PANC-1; for IC (TGI): total growth inhibition (cytostatic effect), read-out: TGI PANC-1
Description: as §1, §2, §3, §4, §5

A-549 = assay: SRB colorimetric cell growth inhibition assay, A-549; conditions: Homo sapiens, A549, A-549; for GI50: GI=growth inhibition, read-out: GI50 A-549; for CC50: cell killing (cytotoxic effect), read-out: LC50 A-549; for IC (TGI): total growth inhibition (cytostatic effect), read-out: TGI A-549
Description: as §1, §2, §3, §4, §5

IGROV-ET = assay: SRB colorimetric cell growth inhibition assay, IGROV-ET (ET-743 resistant); conditions: Homo sapiens, IGROV-ET; for GI50: GI=growth inhibition, read-out: GI50 IGROV-ET; for CC50: cell killing (cytotoxic effect), read-out: LC50 IGROV-ET; for IC (TGI): total growth inhibition (cytostatic effect), read-out: TGI IGROV-ET
Description: as §1, §2, §3, §4, §5

HT-29 = assay: SRB colorimetric cell growth inhibition assay, HT-29; conditions: Homo sapiens, HT-29, HT-29; for GI50: GI=growth inhibition, read-out: GI50 HT-29; for CC50: cell killing (cytotoxic effect), read-out: LC50 HT-29; for IC (TGI): total growth inhibition (cytostatic effect), read-out: TGI HT-29
Description: as §1, §2, §3, §4, §5

SK-BR-3 = assay: SRB colorimetric cell growth inhibition assay, SK-BR-3; conditions: Homo sapiens, SK-BR-3, SK-BR-3; for GI50: GI=growth inhibition, read-out: GI50 SK-BR-3; for CC50: cell killing (cytotoxic effect), read-out: LC50 SK-BR-3; for IC (TGI): total growth inhibition (cytostatic effect), read-out: TGI SK-BR-3
Description: as §1, §2, §3, §4, §5

HeLa-APL = assay: SRB colorimetric cell growth inhibition assay, HeLa-APL (aplidine resistant); conditions: Homo sapiens, HELA-APL; for GI50: GI=growth inhibition, read-out: GI50 HELA-APL; for CC50: cell killing (cytotoxic effect), read-out: LC50 HELA-APL; for IC (TGI): total growth inhibition (cytostatic effect), read-out: TGI HELA-APL
Description: as §1, §2, §3, §4, §5

IGROV = assay: SRB colorimetric cell growth inhibition assay, IGROV; conditions: Homo sapiens, IGROV; for GI50: GI=growth inhibition, read-out: GI50 IGROV; for CC50: cell killing (cytotoxic effect), read-out: LC50 IGROV; for IC (TGI): total growth inhibition (cytostatic effect), read-out: TGI IGROV
Description: as §1, §2, §3, §4, §5

DU-145 = assay: SRB colorimetric cell growth inhibition assay, DU-145; conditions: Homo sapiens, DU-145, DU-145; for GI50: GI=growth inhibition, read-out: GI50 DU-145; for CC50: cell killing (cytotoxic effect), read-out: LC50 DU-145; for IC (TGI): total growth inhibition (cytostatic effect), read-out: TGI DU-145
Description: as §1, §2, §3, §4, §5

K-562 = assay: SRB colorimetric cell growth inhibition assay, K-562; conditions: Homo sapiens, K562, K-562
Description: as §1, §2, §3, §4, §5

LoVo-Dox = assay: SRB colorimetric cell growth inhibition assay, LoVo-Dox (MDR); conditions: Homo sapiens, LOVO-DOX; for GI50: GI=growth inhibition, read-out: GI50 LOVO-DOX; for CC50: cell killing (cytotoxic effect), read-out: LC50 LOVO-DOX; for IC (TGI): total growth inhibition (cytostatic effect), read-out: TGI LOVO-DOX
Description: as §1, §2, §3, §4, §5

HeLa = assay: SRB colorimetric cell growth inhibition assay, HeLa; conditions: Homo sapiens, HeLa; for GI50: GI=growth inhibition, read-out: GI50 HELA; for CC50: cell killing (cytotoxic effect), read-out: LC50 HELA; for IC (TGI): total growth inhibition (cytostatic effect), read-out: TGI HELA
Description: as §1, §2, §3, §4, §5

SK-MEL-28 = assay: SRB colorimetric cell growth inhibition assay, SK-MEL-28; conditions: Homo sapiens, SK-MEL-28, MEL-28; for GI50: GI=growth inhibition, read-out: GI50 MEL-28; for CC50: cell killing (cytotoxic effect), read-out: LC50 MEL-28; for IC (TGI): total growth inhibition (cytostatic effect), read-out: TGI MEL-28
Description: as §1, §2, §3, §4, §5

LNCaP = assay: SRB colorimetric cell growth inhibition assay, LNCaP; conditions: Homo sapiens, LNCaP, LN-caP
Description: as §1, §2, §3, §4, §5

Structure (SMILES) | GI50 (LoVo) [µM] | CC50 (LoVo) [µM] | IC (TGI) (LoVo) [µM] | GI50 (PANC-1) [µM] | CC50 (PANC-1) [µM] | IC (TGI) (PANC-1) [µM] | GI50 (A-549) [µM] | CC50 (A-549) [µM] | IC (TGI) (A-549) [µM] | GI50 (IGROV-ET) [µM] | CC50 (IGROV-ET) [µM] | IC (TGI) (IGROV-ET) [µM] | GI50 (HT-29) [µM] | CC50 (HT-29) [µM] | IC (TGI) (HT-29) [µM] | GI50 (SK-BR-3) [µM] | CC50 (SK-BR-3) [µM] | IC (TGI) (SK-BR-3) [µM] | GI50 (HeLa-APL) [µM] | CC50 (HeLa-APL) [µM] | further results
C=CCOC(=O)N[C@@H](C)C(=O)Oc1ccc(-c2c3c4cc(OC)c(OC(=O)[C@H](C)NC(=O)OCC=C)cc4oc(=O)c3n3ccc4cc(OC(=O)[C@H](C)NC(=O)OCC=C)c(OC)cc4c23)cc1OC [Compound 210] | 2.05 | 7.76 | 3.99 | 0.398 | 4.87 | 1.51 | 0.477 | 10.4 | 3.94 | 0.145 | 0.92 | 0.366 | 7.09 | 10.4 | 10.4 | 0.397 | 4.59 | 1.36 | 0.516 | 10.4 | IC (TGI) (HeLa-APL): 3.08 µM; GI50 (IGROV): 0.317 µM; CC50 (IGROV): 3.65 µM; IC (TGI) (IGROV): 1.06 µM; GI50 (DU-145): 0.181 µM; CC50 (DU-145): 0.631 µM; IC (TGI) (DU-145): 0.339 µM; GI50 (K-562; GI=growth inhibition, read-out: GI50 K-562): 0.612 µM; CC50 (K-562; cell killing (cytotoxic effect), read-out: LC50 K-562): 6.17 µM; IC (TGI) (K-562; total growth inhibition (cytostatic effect), read-out: TGI K-562): 2.13 µM; GI50 (LoVo-Dox): 2.43 µM; CC50 (LoVo-Dox): 10.4 µM; IC (TGI) (LoVo-Dox): 6.04 µM; GI50 (HeLa): 0.611 µM; CC50 (HeLa): 10.4 µM; IC (TGI) (HeLa): 5.54 µM
COc1cc(-c2c3c4cc(OC)c(OC(=O)CCC5CCCCC5)cc4oc(=O)c3n3ccc4cc(OC(=O)CCC5CCCCC5)c(OC)cc4c23)ccc1OC(=O)CCC1CCCCC1 [Compound 12] | 1.83 | 10.9 | 7.41 | 1.62 | 10.9 | 8.94 | 1.2 | 10.9 | 6.64 | 10.9 | 10.9 | 10.9 | 0.0811 | 10.9 | 0.841 | 0.698 | 10.9 | 3.45 | 3.66 | 10.9 | IC (TGI) (HeLa-APL): 10.9 µM; GI50 (IGROV): 1.42 µM; CC50 (IGROV): 8.01 µM; IC (TGI) (IGROV): 3.38 µM; GI50 (DU-145): 0.249 µM; CC50 (DU-145): 7.07 µM; IC (TGI) (DU-145): 1.43 µM; GI50 (LoVo-Dox): 10.9 µM; CC50 (LoVo-Dox): 10.9 µM; IC (TGI) (LoVo-Dox): 10.9 µM; GI50 (HeLa): 1.66 µM; CC50 (HeLa): 10.9 µM; IC (TGI) (HeLa): 7.5 µM; GI50 (SK-MEL-28): 1.77 µM; CC50 (SK-MEL-28): 10.9 µM; IC (TGI) (SK-MEL-28): 5.98 µM
CC[C@H](C)[C@H](N)C(=O)Oc1ccc(-c2c3c4cc(OC)c(OC(=O)[C@@H](N)[C@@H](C)CC)cc4oc(=O)c3n3ccc4cc(OC(=O)[C@@H](N)[C@@H](C)CC)c(OC)cc4c23)cc1OC [Compound 209] | 0.119 | 0.527 | 0.251 | 0.0674 | 1.03 | 0.282 | 0.0428 | 0.713 | 0.195 | 0.0317 | 0.345 | 0.0701 | 3.38 | 10.5 | 9.99 | 0.0478 | 0.101 | 0.0695 | 0.0827 | 0.517 | GI50 (LNCaP; GI=growth inhibition, read-out: GI50 LN-caP): 0.0158 µM; CC50 (LNCaP; cell killing (cytotoxic effect), read-out: LC50 LN-caP): 0.233 µM; IC (TGI) (LNCaP; total growth inhibition (cytostatic effect), read-out: TGI LN-caP): 0.056 µM; IC (TGI) (HeLa-APL): 0.221 µM; GI50 (IGROV): 0.0337 µM; CC50 (IGROV): 0.477 µM; IC (TGI) (IGROV): 0.124 µM; GI50 (DU-145): 0.00429 µM; CC50 (DU-145): 0.0404 µM; IC (TGI) (DU-145): 0.0119 µM; GI50 (LoVo-Dox): 0.137 µM; CC50 (LoVo-Dox): 2.6 µM; IC (TGI) (LoVo-Dox): 0.488 µM; GI50 (HeLa): 0.0662 µM; CC50 (HeLa): 1.01 µM; IC (TGI) (HeLa): 0.269 µM; GI50 (SK-MEL-28): 0.0328 µM; CC50 (SK-MEL-28): 0.48 µM; IC (TGI) (SK-MEL-28): 0.0839 µM
COc1cc2ccn3c(c(-c4ccc(OC(=O)[C@H](C)N)c(OC)c4)c4c5cc(OC)c(OC(=O)[C@H](C)N)cc5oc(=O)c43)c2cc1OC [Compound 20] | 0.436 | 15.3 | 8.83 | 1.24 | 15.3 | 15.3 | 0.589 | 15.3 | 15.3 | 0.593 | 15.3 | 15.3 | 3.58 | 15.3 | 15.3 | 0.0548 | 15.3 | 0.238 | 2.09 | 15.3 | IC (TGI) (HeLa-APL): 15.3 µM; GI50 (IGROV): 0.516 µM; CC50 (IGROV): 15.3 µM; IC (TGI) (IGROV): 7.46 µM; GI50 (DU-145): 0.5 µM; CC50 (DU-145): 15.3 µM; IC (TGI) (DU-145): 2.36 µM; GI50 (LoVo-Dox): 0.525 µM; CC50 (LoVo-Dox): 15.3 µM; IC (TGI) (LoVo-Dox): 2.06 µM; GI50 (HeLa): 1.17 µM; CC50 (HeLa): 15.3 µM; IC (TGI) (HeLa): 15.3 µM; GI50 (SK-MEL-28): 2.24 µM; CC50 (SK-MEL-28): 15.3 µM; IC (TGI) (SK-MEL-28): 15.3 µM
